Measurements from US20110054033A1, “METHODS OF USING ABSCISIC ACID FOR AMELIORATING HYPERTENSION AND VASCULAR INFLAMMATION” (Virginia Tech Intellectual Properties, Inc., priority 2009, published 2011).

Assays:
[1] = tested on: ApoE-deficient mice; assay: Blood pressure by non-invasive tail-cuff system; assay type: in vivo; settings: for Systolic blood pressure vs control-fed mice: P<0.05
Procedure: FIG. 3 is a graph showing that ABA decreases systolic blood pressure in ApoE (−/−) mice. ApoE −/− mice were fed high fat diets created with (solid line) or without (dashed line) 100 mg/kg diet racemic abscisic acid (ABA). Systolic blood pressure was assessed on days 0, 28, 56, and 72 of dietary treatment. Data were analyzed as a completely randomized design.
Five-week old ApoE −/− mice (n=40) were housed at the animal facilities at Virginia Polytechnic Institute and State University in a room maintained at 75° F., with a 12:12 h light-dark cycle starting from 6:00 AM. All experimental procedures were approved by the Institutional Animal Care and Use Committee of Virginia Polytechnic Institute and State University and met or exceeded requirements of the Public Health Service/National Institutes of Health and the Animal Welfare Act. Mice were fed a high saturated fat (AIN-93G-based) diet containing 19.6% fat and 0.2% total cholesterol and obtaining 40.1% of Kcal from fat (4.4 Kcal/g) with or without 100 mg/kg of a racemic ABA mixture (Guri et al., J. Nutr. Biochem. 19:216-28, 2008). Systolic blood pressure was assessed on days 0, 28, 56, and 72. On day 84, fasted mice (12 h) were sacrificed by carbon dioxide asphyxiation and blood was withdrawn through cardiac puncture. Glucose concentrations of whole blood were assessed with an Accu-Chek® Glucometer (Roche, Indianapolis, Ind.) and plasma insulin was measured through insulin ELISA (Millipore, Billerica, Mass.). Aortas were collected for analysis of immune cell infiltration, histological evaluation of atherosclerotic lesions, and gene expression analyses.
Systolic blood pressure was measured with a computerized non-invasive tail-cuff system (CODA 2 mouse rat blood pressure system; Kent Scientific Corporation, Torrington, Conn.). Conscious animals were kept in a restrainer, with a standard acclimatization time of 10 min and gentle heating of the tail before every recording session. Fifteen recordings, which were preceded by five acclimitization recordings, were performed on each animal during each timepoint.

[2] = tested on: F4/80+CD11b+ macrophages and CD4+ T-cells; assay: Flow cytometry of immune cell infiltration into the aortic root; assay type: in vivo, mice; settings: day 84, flow cytometry
Procedure: FIG. 6 are graphs showing that ABA decreases immune cell infiltration in aortas of ApoE−/− mice and reduces pro-inflammatory gene expression. ApoE −/− mice were fed high fat diets created with or without 100 mg/kg diet racemic abscisic acid (ABA). (A) Infiltration of F4/80^+CD11b^+ macrophages and CD4^+ T-cells into the aorta were assessed with flow cytometry. Gene expression in the aorta of pro-inflammatory markers (B) vascular cell adhesion molecule 1 (VCAM-1), (C) monocyte chemoattractant protein 1 (MCP-1), (D) E-selectin, (F) peroxisome proliferator-activated receptor γ (PPAR γ), and (G) CD36 were measured as a ratio to the housekeeping gene β-actin. (H) MCP-1 protein concentrations (pg/mL) were measured by ELISA. Data were analyzed as a completely randomized design.
After euthanization, mouse hearts were perfused with PBS for 2 minutes. Aortas were then extracted. Aortic roots were cut into small […] pieces, and placed in 1× Hanks Balanced Sodium Salt Solution (HBSS) containing 0.2% type II collagenase (Worthington Biochemicals). After digestion at 37° C. for 1 hour, samples were sent through a […] nylon filter (BD), washed with HBSS, and centrifuged at 1200 rpm for 10 min. Cell suspensions were then resuspended in FACS buffer and enumerated by using a Z1 Single Particle Counter (Beckman Coulter). […]

[3] = tested on: pancreatic β-cells; settings: Bruzzone et al., 2008; cited from earlier work
[4] = ABA 100 mg/kg diet, data not shown

In the case of `CC1=CC(=O)CC(C)(C)C1(O)/C=C/C(C)=C\C(=O)O` (racemic) [ABA, abscisic acid], the “Diastolic blood pressure vs control-fed mice” value [1, 4] is reported as “no significant affect”, the “Mean heart rate vs control-fed mice” value [1, 4] is reported as “no significant affect” and the “Systolic blood pressure vs control-fed mice” value ([1]; day 56, ABA 100 mg/kg diet) is reported as “significantly reduced”. The “Systolic blood pressure vs control-fed mice” value ([1]; day 72, ABA 100 mg/kg diet) was “significantly reduced”, the “Recruitment of CD4+ T-cells in the aortic root vs control” value [2] was “significantly reduces recruitment” and the “Recruitment of F4/80+CD11b+ macrophages in the aortic root vs control” value [2] was “significantly reduces recruitment”. For the same compound, the “Intracellular levels of cAMP” value [3] was “increases intracellular levels of cAMP”.
